{"source": "patent US20130045483A1", "about": "“YEAST CELLS EXPRESSING AMYLOID BETA AND USES THEREFOR” (priority 2011, published 2013)", "key": {"ssAβ 1-42 strain": {"test_system": "ssAβ 1-42 strain", "assay": "Clioquinol rescue in liquid culture (Bioscreen OD600 growth)", "assay_type": "cell-based, yeast", "details": "for growth of the Aβ expressing strain: inducing (galactose) media, various concentrations; for growth at the optimal concentration compared with control strain: control strain expressing YFP", "description": "(§1) To further test the effect of clioquinol, a control strain and a strain expressing toxic levels of Aβ were grown in liquid culture with various concentrations of the compound.\nYeast strains were grown overnight to saturation in synthetic medium with glucose as the carbon source after inoculation from a colony. These cultures were used to inoculate raffinose cultures. Raffinose cultures in log phase growth (OD600 0.7-0.9) were diluted to an OD600 of 0.03 in synthetic medium with galactose as the carbon source, and […] of the cell suspension was distributed to each well of a Bioscreen plate. […] of clioquinol (Sigma C8133, ˜95%), dissolved in DMSO at 100 times the final intended concentration, was added to each well. A Labsystems Bioscreen C was used to maintain the plate at 30 degrees C. and make OD600 measurements on each well at 10-minute intervals over a period of approximately three days. Each condition was performed in duplicate."}, "GAL controlled YFP": {"test_system": "GAL controlled YFP", "assay": "GAL1-induced expression, flow cytometry of GAL controlled YFP", "assay_type": "cell-based, yeast", "details": "flow cytometry of GAL controlled YFP (data not shown)", "description": "as §1\nA strain carrying an integrated YFP was transformed with the putative Aβ suppressors. The resulting strains were grown in glucose media in a 96 well format, diluted into the various inducing media (galactose, glucose+1 uM estradiol, glycerol+1 uM estradiol) [5 ul culture added to 120 ul media], and incubated over night at 30° C. with mild shaking. These overnight cultures were diluted 20 fold into water and YFP levels were measured using a Guava flow cytometer. Each strain was measured 3 times and 5000 cells were counted for each well. The whole experiment was repeated 3 times. Values are averages of these 3 experiments and reported in percent of the vector control strain YFP levels."}}, "data": [{"smiles": "Oc1c(I)cc(Cl)c2cccnc12", "note": "[clioquinol]", "values": [{"measurement": "toxicity at higher concentrations", "setting": "ssAβ 1-42 strain; higher concentrations, ssAβ 1-42 strain and YFP control strain", "value": "toxic to both strains"}, {"measurement": "growth of the Aβ expressing strain", "setting": "ssAβ 1-42 strain", "value": "rescued growth levels in a dose dependent manner"}, {"measurement": "growth of the Aβ expressing strain", "setting": "ssAβ 1-42 strain; listed as Clioquinol", "value": "improved the growth of the Aβ expressing strain in a dose dependent manner"}, {"measurement": "growth at the optimal concentration compared with control strain", "setting": "ssAβ 1-42 strain", "value": "restored growth levels to those of a control strain expressing YFP"}, {"measurement": "growth at the optimal concentration compared with control strain", "setting": "ssAβ 1-42 strain; listed as Clioquinol", "value": "nearly as robust as that of the control strain"}, {"measurement": "effect on GAL1-induced expression", "setting": "GAL controlled YFP", "value": "did not diminish GAL1-induced expression"}]}]}
